Data from US8247351B2, “Insecticidal compositions having improved effect” (Bayer Cropscience AG, priority 2005, dated 2012).

Key:
Format in all cases: in vivo
Myzus persicae [1] = assay: Myzus persicae test, Example D (sprayed to runoff, ammonium salt boosting)
Procedure: (§1) Solvent: 7 parts by weight dimethylformamide
(§2) Emulsifier: 2 parts by weight alkylaryl polyglycol ether
(§3) An appropriate preparation of active ingredient is prepared by mixing 1 part by weight of active ingredient with the stated amounts of solvent and emulsifier and diluting the concentrate with water to the desired concentration. For the application with ammonium salts or phosphonium salts, these salts are added in a concentration of 1000 ppm to the spray liquor.
Paprika plants (Capsicum annum) heavily infested by the green peach aphid (Myzus persicae) are treated by being. sprayed to runoff with the preparation of active ingredient at the desired concentration. After the desired time the destruction in % is ascertained. 100% means that all of the animals have been killed; 0% means that no animals have been killed.

Aphis gossypii [2] = assay: Aphis gossypii test, Example E (sprayed to runoff, ammonium salt boosting)
Procedure: as §1, §2
as §3, with “concentrate with emulsifier-containing water to” for “concentrate with water to”
(§4) Cotton plants (Gossypium hirsutum) heavily infested by the cotton aphid (Aphis gossypii) are sprayed to runoff with the preparation of active ingredient at the desired concentration.
(§5) After the desired time the destruction in % is ascertained. 100% means that all of the aphids have been killed; 0% means than no aphids were killed.

Myzus persicae [3] = assay: Myzus persicae test, Example F (sprayed to runoff, ammonium salt plus penetrant)
Procedure: as §1, §2
An appropriate preparation of active ingredient is prepared by mixing 1 part by weight of active ingredient with the stated amounts of solvent and emulsifier and diluting the concentrate with water to the desired concentration. For the application with ammonium salts or phosphonium salts and penetrant (rapeseed oil methyl ester 500 EW), they are each added in a concentration of 1000 ppm to the spray liquor.
After the desired time the destruction in % is ascertained. 100% means that all of the animals have been killed; 0% means that no animals have been killed.

Aphis gossypii [4] = assay: Aphis gossypii test, Example G (sprayed to runoff, ammonium salt plus penetrant)
Procedure: as §1, §2
An appropriate preparation of active ingredient is prepared by mixing 1 part by weight of active ingredient with the stated amounts of solvent and emulsifier and diluting the concentrate with emulsifier-containing water to the desired concentration. For the application with ammonium salts or phosphonium salts and penetrants (rapeseed oil methyl esters 500 EW), they are each added in a concentration of 1000 ppm a.i. to the spray liquor.
as §4, §5

[5] = 4 ppm active ingredient, +AS (1000 ppm)
[6] = 4 ppm active ingredient, no additive
[7] = 20 ppm active ingredient, +AS (1000 ppm)
[8] = 20 ppm active ingredient, no additive
[9] = 0.8 ppm active ingredient, +AS (1000 ppm)
[10] = 0.8 ppm active ingredient, no additive
[11] = 0.8 ppm active ingredient, +RME (1000 ppm)
[12] = 0.8 ppm active ingredient, +RME +AS (each 1000 ppm)
[13] = 4 ppm active ingredient, +RME (1000 ppm)
[14] = 4 ppm active ingredient, +RME +AS (each 1000 ppm)
[15] = 20 ppm active ingredient, +RME (1000 ppm)
[16] = 20 ppm active ingredient, +RME +AS (each 1000 ppm)

| Compound | Degree of destruction/% after 6 days (Myzus persicae [1]; [5]) | Degree of destruction/% after 6 days (Myzus persicae [1]; [6]) | Degree of destruction/% after 6 days (Myzus persicae [1]; [7]) | Degree of destruction/% after 6 days (Myzus persicae [1]; [8]) | Degree of destruction/% after 6 days (Aphis gossypii [2]; [9]) | Degree of destruction/% after 6 days (Aphis gossypii [2]; [10]) | Degree of destruction/% after 6 days (Aphis gossypii [2]; [5]) | Degree of destruction/% after 6 days (Aphis gossypii [2]; [6]) | Degree of destruction/% after 6 days (Myzus persicae [3]; [9]) | Degree of destruction/% after 6 days (Myzus persicae [3]; [11]) | Degree of destruction/% after 6 days (Myzus persicae [3]; [12]) | Degree of destruction/% after 6 days (Myzus persicae [3]; [10]) | Degree of destruction/% after 6 days (Myzus persicae [3]; [5]) | Degree of destruction/% after 6 days (Myzus persicae [3]; [13]) | Degree of destruction/% after 6 days (Myzus persicae [3]; [14]) | Degree of destruction/% after 6 days (Myzus persicae [3]; [6]) | Degree of destruction/% after 6 days (Aphis gossypii [4]; [9]) | Degree of destruction/% after 6 days (Aphis gossypii [4]; [11]) | Degree of destruction/% after 6 days (Aphis gossypii [4]; [12]) | Degree of destruction/% after 6 days (Aphis gossypii [4]; [10]) | also measured |
| --- | --- | --- | --- | --- | --- | --- | --- | --- | --- | --- | --- | --- | --- | --- | --- | --- | --- | --- | --- | --- | --- |
| Cc1cc(Cl)cc(C)c1C1=C(O)C2(CCC3(CC2)OCCO3)NC1=O [Example I-1-a-4] | 65% | 40% | 98% | 95% | 65% | 15% | 85% | 60% | 5% | 0% | 20% | 0% | 65% | 95% | 98% | 40% | 65% | 30% | 80% | 15% | – |
| CO[C@H]1CC[C@]2(CC1)NC(=O)C(c1c(C)cc(I)cc1C)=C2O [Example I-1-a-7] | 80% | 40% | – | – | – | – | 90% | 55% | 10% | 35% | 75% | 0% | – | – | – | – | 45% | 50% | 75% | 35% | Degree of destruction/% after 6 days (Aphis gossypii [2]; [7]): 99%; Degree of destruction/% after 6 days (Aphis gossypii [2]; [8]): 85%; Degree of destruction/% after 6 days (Aphis gossypii [4]; [5]): 90%; Degree of destruction/% after 6 days (Aphis gossypii [4]; [13]): 85%; Degree of destruction/% after 6 days (Aphis gossypii [4]; [14]): 95%; Degree of destruction/% after 6 days (Aphis gossypii [4]; [6]): 55% |
| Cc1cc(C)c(C2=C(O)C3(CCC(C)CC3)NC2=O)c(C)c1 (stereo not drawn) [Example I-1-a-8] | – | – | – | – | 40% | 0% | – | – | 55% | 60% | 80% | 20% | – | – | – | – | 40% | 20% | 60% | 0% | Degree of destruction/% after 6 days (Myzus persicae [1]; [9]): 55%; Degree of destruction/% after 6 days (Myzus persicae [1]; [10]): 20% |
| COC1CCC2(CC1)NC(=O)C(c1cc(C)ccc1Br)=C2O (stereo not drawn) [Example I-1-a-11] | – | – | 70% | 0% | – | – | 35% | 5% | – | – | – | – | 5% | 55% | 99% | 0% | – | – | – | – | Degree of destruction/% after 6 days (Aphis gossypii [2]; [7]): 80%; Degree of destruction/% after 6 days (Aphis gossypii [2]; [8]): 45%; Degree of destruction/% after 6 days (Aphis gossypii [4]; [5]): 35%; Degree of destruction/% after 6 days (Aphis gossypii [4]; [13]): 45%; Degree of destruction/% after 6 days (Aphis gossypii [4]; [14]): 80%; Degree of destruction/% after 6 days (Aphis gossypii [4]; [6]): 5% |
| COC1CCC2(CC1)NC(=O)C(c1c(Cl)cc(Cl)c(C)c1Cl)=C2O (stereo not drawn) [Example I-1-a-12] | – | – | 65% | 55% | 45% | 5% | 95% | 65% | – | – | – | – | 5% | 0% | 50% | 0% | 45% | 45% | 65% | 5% | Degree of destruction/% after 6 days (Myzus persicae [3]; [7]): 65%; Degree of destruction/% after 6 days (Myzus persicae [3]; [15]): 70%; Degree of destruction/% after 6 days (Myzus persicae [3]; [16]): 98%; Degree of destruction/% after 6 days (Myzus persicae [3]; [8]): 55% |
| COc1cc(C)cc(C)c1C1=C(O)C2(CCC(OC)CC2)OC1=O (stereo not drawn) [Example I-2-a-2] | 90% | 65% | – | – | 70% | 30% | 95% | 85% | 25% | 15% | 99% | 0% | – | – | – | – | 70% | 50% | 95% | 30% | Degree of destruction/% after 6 days (Myzus persicae [1]; [9]): 25%; Degree of destruction/% after 6 days (Myzus persicae [1]; [10]): 0% |
| Cc1ccc(-c2ccc(Cl)cc2)cc1C1=C(O)C(C)(C)OC1=O [Example I-2-a-3] | – | – | 15% | 0% | – | – | – | – | – | – | – | – | – | – | – | – | – | – | – | – | Degree of destruction/% after 6 days (Aphis gossypii [2]; [7]): 30%; Degree of destruction/% after 6 days (Aphis gossypii [2]; [8]): 0%; Degree of destruction/% after 6 days (Myzus persicae [3]; [7]): 15%; Degree of destruction/% after 6 days (Myzus persicae [3]; [15]): 35%; Degree of destruction/% after 6 days (Myzus persicae [3]; [16]): 80%; Degree of destruction/% after 6 days (Myzus persicae [3]; [8]): 0%; Degree of destruction/% after 6 days (Aphis gossypii [4]; [5]): 5%; Degree of destruction/% after 6 days (Aphis gossypii [4]; [13]): 0%; Degree of destruction/% after 6 days (Aphis gossypii [4]; [14]): 15%; Degree of destruction/% after 6 days (Aphis gossypii [4]; [6]): 0%; Degree of destruction/% after 6 days (Aphis gossypii [4]; [7]): 30%; Degree of destruction/% after 6 days (Aphis gossypii [4]; [15]): 0%; Degree of destruction/% after 6 days (Aphis gossypii [4]; [16]): 65%; Degree of destruction/% after 6 days (Aphis gossypii [4]; [8]): 0% |
| COc1cc(C)cc(Cl)c1C1=C(O)C2(CCC(OC)CC2)OC1=O (stereo not drawn) [Example I-2-a-4] | – | – | 80% | 60% | 45% | 10% | 90% | 70% | – | – | – | – | 0% | 0% | 70% | 0% | 45% | 45% | 70% | 10% | – |
| COc1cc(C)cc(C)c1-c1c(O)c(C)c(-c2ccccn2)oc1=O [Example I-4-a-1] | 45% | 0% | 95% | 75% | – | – | 40% | 0% | 5% | 0% | 40% | 0% | – | – | – | – | 15% | 0% | 45% | 0% | – |
| Cc1cc(Br)cc(C)c1-c1c(O)c(C)c(-c2ccccn2)oc1=O [Example I-4-a-3] | 70% | 5% | 85% | 40% | 40% | 0% | 70% | 25% | 5% | 20% | 98% | 0% | – | – | – | – | 40% | 0% | 80% | 0% | – |
| Cc1ccc(-c2ccc(Cl)cc2)cc1C1=C(O)C(C)(C)C(C)(C)OC1=O [Example I-10-a-1] | – | – | 25% | 0% | – | – | – | – | – | – | – | – | 5% | 20% | 55% | 0% | – | – | – | – | Degree of destruction/% after 6 days (Aphis gossypii [2]; [7]): 45%; Degree of destruction/% after 6 days (Aphis gossypii [2]; [8]): 0%; Degree of destruction/% after 6 days (Myzus persicae [3]; [7]): 25%; Degree of destruction/% after 6 days (Myzus persicae [3]; [15]): 65%; Degree of destruction/% after 6 days (Myzus persicae [3]; [16]): 99%; Degree of destruction/% after 6 days (Myzus persicae [3]; [8]): 0%; Degree of destruction/% after 6 days (Aphis gossypii [4]; [7]): 45%; Degree of destruction/% after 6 days (Aphis gossypii [4]; [15]): 45%; Degree of destruction/% after 6 days (Aphis gossypii [4]; [16]): 70%; Degree of destruction/% after 6 days (Aphis gossypii [4]; [8]): 0% |
